Source: patent US20200155500A1, “COMPOSITION FOR PREVENTING AND TREATING PANCREATITIS CONTAINING NAPHTHOQUINONE-BASED COMPOUND AS ACTIVE INGREDIENT” (NADIANBIO Ltd., priority 2015, published 2020)

How the values were obtained:
[1] = tested on: caerulein mediated pancreatitis; assay: Ratio of pancreas weight to body weight, caerulein mediated pancreatitis model; type: in vivo; details: C57BL/6 mice, oral 10, 20, 40 mg/kg one day before caerulein (50 μg/kg i.p. x6); vs caerulein treated group
Description: In this invention, C57BL/6 mice at the body weight of about 22±2 g were used. All the mice were raised in a sterile animal laboratory with constant temperature (22˜26[…]) and humidity (55˜60%). The mice were adapted for 1 week while feeding with normal solid feed (Samtaco Korea) and water. All the experiments were performed according to the guide for the care and use of laboratory animals set by Wonkwang University. […] When pancreatitis is developed, the weight of pancreas is known to be increased because of edema. Thus, blood was extracted from all the animals finished with the experiment and then the ratio of the pancreas weight to the body weight was measured. […] After blood was extracted, the pancreas was cut out and the weight of the pancreas to the body weight was measured by the pancreas weight (wet pancreas weight)/body weight (wet body weight) formula of Grady method.

amylase [2] = assay: Serum amylase activity, caerulein mediated pancreatitis model; type: in vivo; details: C57BL/6 mice, oral 10, 20, 40 mg/kg one day before caerulein; vs caerulein treated group
Description: (§1) In this invention, C57BL/6 mice at the body weight of about 22±2 g were used. All the mice were raised in a sterile animal laboratory with constant temperature (22˜26[…]) and humidity (55˜60%). The mice were adapted for 1 week while feeding with normal solid feed (Samtaco Korea) and water. All the experiments were performed according to the guide for the care and use of laboratory animals set by Wonkwang University.
(§2) Serum was obtained and then OD595 and OD412 were measured by using amylase activity analysis kit (DAMY-100; BioAssay Systems, USA) and lipase activity analysis kit (DLPS-100; BioAssay Systems, USA) to investigate the activities of amylase and lipase.

lipase [3] = assay: Serum lipase activity, caerulein mediated pancreatitis model; type: in vivo; details: C57BL/6 mice, oral 10, 20, 40 mg/kg one day before caerulein; vs caerulein treated group
Description: as §1, §2

IL-1β [4] = assay: Serum IL-1β level by ELISA, caerulein mediated pancreatitis model; type: in vivo; details: C57BL/6 mice, oral 10, 20, 40 mg/kg one day before caerulein, dose-dependently, vs caerulein treated group
Description: as §1
(§3) Serum was obtained from the animal model and then the level of serum IL-1β was measured by using mouse IL-1β ELISA kit (BD, USA). First, nasal lavage fluid or diluted serum was loaded in the 96-well plate coated with the mouse IL-1β specific antibody, followed by reaction at room temperature for 2 hours. After washing the plate, biotin conjugate was added thereto, followed by reaction at room temperature for 1 hour. After washing the plate, streptavidin-HRP working solution was added thereto, followed by reaction. After washing the plate again, stabilized chromogen was added thereto, followed by reaction. Then, OD450 was measured. In addition, the expression of IL-1β in pancreas was confirmed by real-time PCR in each pancreas tissue. To extract total RNA, 1 mL of TRIzol (Invitrogen, USA) was added to 20 mg of each pancreas tissue, which stood on ice for 5 minutes to lyse cells. […] The RNA was quantified by using Nanodrop 2000 (Thermo, USA). […]

IL-1β [5] = assay: Expression of IL-1β in pancreas by real-time PCR, caerulein mediated pancreatitis model; type: in vivo; details: C57BL/6 mice, oral treatment one day before caerulein, vs caerulein treated group
Description: as §1, §3

MCP-1 = assay: Expression of MCP-1 in pancreas by RT-PCR, caerulein mediated pancreatitis model; type: in vivo; details: C57BL/6 mice, oral 10, 20, 40 mg/kg one day before caerulein, vs caerulein treated group
Description: as §1

[6] = tested on: caerulein mediated pancreatitis; assay: Morphological changes of pancreas tissue (hematoxylin-eosin, histological scores), preventive treatment; type: in vivo; details: C57/BL6 mouse, oral 10, 20, 40 mg/kg one day before caerulein; dose-dependently
Description: as §1
Pancreas tissues were separated, fixed in 10% formalin for 24 hours at 4[…], demineralized with 10% ethylenediaminetetra-acetic acid (EDTA, pH 7.4) solution, washed, dehydrated, embedded in paraffin and cut into 5 μm sections. The sections were stained with hematoxylin-eosin, followed by observation under optical microscope.

NQO-1 knock out mouse [7] = assay: Morphological changes of pancreas tissue in NQO1 knock out mouse; type: in vivo; details: 40 mg/kg plus caerulein, vs caerulein treated group
Description: β-lapachone is known as a co-substrate of NQO-1 (NAD(P)H: quinone oxidoreductase-1). So, in order to confirm whether or not the pancreas protection effect of β-lapachone was via the activation pathway of NQO-1, the morphological changes of pancreas were investigated in NQO-1 knock out mouse.
Then, the pancreas tissues were stained with hematoxylin-eosin by the same manner as described in Experimental Example 5, followed by observation under optical microscope.

NQO-1 knock out mouse [8] = assay: Ratio of pancreas weight to body weight in NQO-1 knock out mouse; type: in vivo; details: NQO1 knock out mouse; caerulein treated group vs β-lapachone cotreated group
Description: (§4) To confirm whether or not the protective effect of β-lapachone on pancreatitis was via the activation pathway of NQO-1 enzyme, the present inventors investigated the weight of pancreas, the activities of serum amylase and lipase, and the concentration of serum IL-1β in NQO-1 knock out mouse.
(§5) Then, the ratio of the pancreas weight to the body weight was calculated by the same manner as described in Experimental Example 2. The activities of serum amylase and lipase were measured using a kit by the same manner as described in Experimental Example 3.

amylase [9] = assay: Serum amylase activity in NQO-1 knock out mouse; type: in vivo; details: NQO1 knock out mouse; caerulein treated group vs β-lapachone cotreated group
Description: as §4, §5

lipase [10] = assay: Serum lipase activity in NQO-1 knock out mouse; type: in vivo; details: NQO1 knock out mouse; caerulein treated group vs β-lapachone cotreated group
Description: as §4, §5

IL-1β [11] = assay: Serum IL-1β concentration in NQO-1 knock out mouse; type: in vivo; details: NQO1 knock out mouse; caerulein treated group vs β-lapachone cotreated group
Description: as §4, §5

[12] = tested on: pancreatitis induced by caerulein; assay: Therapeutic effect on caerulein-induced pancreatitis, pancreas tissue morphology; type: in vivo, C57BL/6 mice; details: intravenous injection six hours after the final caerulein administration; 10, 20, 40 mg/kg
Description: as §1

[13] = tested on: lung damage induced by caerulein; assay: Lung damage induced by pancreatitis, C57/BL6 mouse; type: in vivo; details: cotreatment 10, 20, 40 mg/kg
NQO-1 knock out mouse [14] = assay: Lung damage induced by pancreatitis, NQO-1 knock out mouse; type: in vivo; details: cotreatment with β-lapachone

| SMILES | ratio of pancreas weight/body weight [1] | amylase activity in serum (amylase [2]) | lipase activity in serum (lipase [3]) | serum IL-1β level (IL-1β [4]) | expression of IL-1β in pancreas (IL-1β [5]) | expression of MCP-1 in pancreas (MCP-1) | edema, inflammation, and cell necrosis of pancreas tissues induced by caerulein (histological scores) [6] | edema, inflammation, and cell necrosis of pancreas tissues (NQO-1 knock out mouse [7]) | ratio of pancreas weight/body weight (NQO-1 knock out mouse [8]) | activity of serum amylase (amylase [9]) | activity of serum lipase (lipase [10]) | concentration of serum IL-1β (IL-1β [11]) | edema, inflammation, and cell necrosis of pancreas tissues induced by caerulein (histological scores) [12] | lung damage induced by caerulein [13] | lung damage induced by caerulein (NQO-1 knock out mouse [14]) |
| --- | --- | --- | --- | --- | --- | --- | --- | --- | --- | --- | --- | --- | --- | --- | --- |
| CC1(C)CCC2=C(O1)c1ccccc1C(=O)C2=O [β-lapachone] | significantly reduced dose-dependently | significantly reduced dose-dependently | significantly reduced dose-dependently | significantly reduced | significantly reduced | reduced dose-dependently | all inhibited | not reduced | not significantly different | not significantly different | not significantly different | not much different | all reduced | inhibited | not inhibited |
| CC1OC2=C(C(=O)C(=O)c3ccccc32)C1(C)C (centres unmarked) [dunnione] | significantly reduced dose-dependently | significantly reduced dose-dependently | significantly reduced dose-dependently | significantly reduced | significantly reduced | reduced dose-dependently | all inhibited | – | – | – | – | – | – | significantly inhibited | – |
